Source: PMC6067974 (Neuropharmacology, 2018)
Read-outs that look alike come from different tables or passages of the source. Marks after values point to notes of the source that are not given here.

Legend:
[1] = tested on: mice; test: Telemetric monitoring of Tb and physical activity in mice; format: in vivo, mouse; conditions: for block of PSB-0777-induced hypothermia: i.p. at -15 min, then PSB-0777 1 mg/kg i.p.
[2] = tested on: mice; test: Indirect calorimetry; conditions: CGS-21680 0.25 mg/kg, i.p.; C57BL/6J mice
[3] = tested on: mice; conditions: intraarterial CGS-21680; wild type mice; ref Ledent et al., 1997; cited from earlier work
[4] = tested on: 45 human receptors, channels, and transporters; test: PDSP off-target screen, whole panel; format: binding; conditions: at <10 μM
[5] = cited from earlier work
[6] = tested on: mice; conditions: cited from earlier work
[7] = molecular target: T1, mouse A1AR (Mus musculus, UniProt Q60612); conditions: ref Carlin et al., 2017, cited from earlier work
T1 sequence (Q60612 1-326): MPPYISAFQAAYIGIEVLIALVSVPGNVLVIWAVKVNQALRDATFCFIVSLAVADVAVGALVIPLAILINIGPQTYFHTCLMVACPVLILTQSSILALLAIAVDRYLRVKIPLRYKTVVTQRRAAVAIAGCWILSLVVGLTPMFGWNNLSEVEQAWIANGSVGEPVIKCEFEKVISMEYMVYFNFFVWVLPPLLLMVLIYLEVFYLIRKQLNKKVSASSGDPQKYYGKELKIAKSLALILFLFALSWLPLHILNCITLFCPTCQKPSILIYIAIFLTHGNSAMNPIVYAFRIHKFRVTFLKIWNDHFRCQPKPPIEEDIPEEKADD

[8] = molecular target: mouse A2AAR (Mus musculus, UniProt Q60613); test: Radioligand binding, mouse A2AAR
Chain of mouse A2AAR (Q60613 whole entry): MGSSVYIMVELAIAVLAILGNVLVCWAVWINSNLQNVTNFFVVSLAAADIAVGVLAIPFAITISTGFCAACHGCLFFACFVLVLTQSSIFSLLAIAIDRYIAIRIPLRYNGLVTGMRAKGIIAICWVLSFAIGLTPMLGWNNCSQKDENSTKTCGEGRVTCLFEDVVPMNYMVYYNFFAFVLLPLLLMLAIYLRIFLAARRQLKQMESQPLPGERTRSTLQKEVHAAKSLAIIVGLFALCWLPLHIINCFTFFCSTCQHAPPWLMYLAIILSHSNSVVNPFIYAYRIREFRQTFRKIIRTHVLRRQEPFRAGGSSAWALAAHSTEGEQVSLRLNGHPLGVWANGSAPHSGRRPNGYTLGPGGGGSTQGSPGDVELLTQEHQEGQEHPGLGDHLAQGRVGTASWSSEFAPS

[9] = molecular target: T1, mouse A1AR; test: Radioligand binding, mouse A1AR; conditions: for A1AR rat: mouse ratio: ratio of rat Ki to mouse Ki at A1AR
[10] = molecular target: human β3 adrenergic receptor (Homo sapiens, UniProt P13945); conditions: read-out: Ki, human β3 adrenergic receptor; PDSP screen
Chain of human β3 adrenergic receptor (P13945 whole entry): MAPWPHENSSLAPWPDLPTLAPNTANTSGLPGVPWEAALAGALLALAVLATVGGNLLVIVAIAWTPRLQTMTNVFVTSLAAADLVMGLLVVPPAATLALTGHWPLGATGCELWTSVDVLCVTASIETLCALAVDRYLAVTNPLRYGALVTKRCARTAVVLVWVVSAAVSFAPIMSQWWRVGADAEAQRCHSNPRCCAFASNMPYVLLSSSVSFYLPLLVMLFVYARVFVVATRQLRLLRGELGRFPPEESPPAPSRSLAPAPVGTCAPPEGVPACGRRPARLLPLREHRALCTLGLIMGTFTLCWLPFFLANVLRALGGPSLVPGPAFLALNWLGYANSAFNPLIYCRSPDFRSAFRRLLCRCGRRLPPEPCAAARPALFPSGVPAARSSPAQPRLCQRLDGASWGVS

[11] = molecular target: A2BAR; conditions: read-out: Ki, A2BAR (h), human, cited from earlier work
[12] = molecular target: human β1 adrenergic receptor (Homo sapiens, UniProt P08588); conditions: read-out: Ki, human β1 adrenergic receptor; PDSP screen
Chain of human β1 adrenergic receptor (P08588 whole entry): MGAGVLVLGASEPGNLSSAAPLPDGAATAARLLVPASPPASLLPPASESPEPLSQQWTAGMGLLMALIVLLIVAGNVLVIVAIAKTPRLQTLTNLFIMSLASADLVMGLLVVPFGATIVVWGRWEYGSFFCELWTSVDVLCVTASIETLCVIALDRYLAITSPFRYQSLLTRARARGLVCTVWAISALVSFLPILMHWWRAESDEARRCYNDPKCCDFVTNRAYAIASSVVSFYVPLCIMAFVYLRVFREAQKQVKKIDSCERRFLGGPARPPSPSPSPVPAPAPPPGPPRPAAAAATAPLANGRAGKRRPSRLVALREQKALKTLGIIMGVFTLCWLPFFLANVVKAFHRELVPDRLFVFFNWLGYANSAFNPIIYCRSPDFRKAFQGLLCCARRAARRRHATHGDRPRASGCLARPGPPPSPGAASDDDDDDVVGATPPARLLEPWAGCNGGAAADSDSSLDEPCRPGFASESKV

[13] = tested on: brown adipose tissue; conditions: by stimulation of brown adipose tissue; ref Gnad et al., 2014; cited from earlier work
[14] = molecular target: T2, mouse A3AR (Mus musculus, UniProt Q61618); test: Radioligand binding, mouse A3AR
T2 sequence (Q61618 1-319): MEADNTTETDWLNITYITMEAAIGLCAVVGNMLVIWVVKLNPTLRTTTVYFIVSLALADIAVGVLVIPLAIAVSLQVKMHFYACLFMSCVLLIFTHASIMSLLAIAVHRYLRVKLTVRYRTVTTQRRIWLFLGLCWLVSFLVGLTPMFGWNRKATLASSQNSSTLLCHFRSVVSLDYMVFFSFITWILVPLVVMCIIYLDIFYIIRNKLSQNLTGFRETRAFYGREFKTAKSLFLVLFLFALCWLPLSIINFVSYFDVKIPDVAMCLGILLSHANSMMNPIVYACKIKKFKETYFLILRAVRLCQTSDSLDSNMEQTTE

[15] = molecular target: A1AR; conditions: cited from earlier work
[16] = molecular target: serotonin transporter (SERT) (Homo sapiens, UniProt P31645); test: PDSP off-target radioligand binding, serotonin transporter
Chain of serotonin transporter (SERT) (P31645 whole entry): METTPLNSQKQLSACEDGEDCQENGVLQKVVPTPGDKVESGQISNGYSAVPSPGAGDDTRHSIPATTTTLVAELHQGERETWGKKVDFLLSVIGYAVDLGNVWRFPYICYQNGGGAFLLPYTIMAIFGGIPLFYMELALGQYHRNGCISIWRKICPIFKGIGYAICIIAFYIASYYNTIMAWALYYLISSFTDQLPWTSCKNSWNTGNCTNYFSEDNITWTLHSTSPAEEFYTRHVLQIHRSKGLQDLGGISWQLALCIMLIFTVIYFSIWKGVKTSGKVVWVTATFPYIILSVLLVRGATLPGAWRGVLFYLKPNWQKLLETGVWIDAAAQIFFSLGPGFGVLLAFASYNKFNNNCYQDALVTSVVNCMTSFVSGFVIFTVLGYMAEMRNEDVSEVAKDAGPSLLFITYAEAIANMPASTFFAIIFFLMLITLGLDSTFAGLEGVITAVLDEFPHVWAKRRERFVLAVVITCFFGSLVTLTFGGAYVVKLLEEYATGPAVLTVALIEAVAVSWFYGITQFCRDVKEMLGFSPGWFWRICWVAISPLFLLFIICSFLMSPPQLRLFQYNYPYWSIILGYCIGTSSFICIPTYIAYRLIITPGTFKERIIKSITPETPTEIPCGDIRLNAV

[17] = molecular target: M3 acetylcholine receptor (Homo sapiens, UniProt P20309); test: PDSP off-target radioligand binding, M3 acetylcholine receptor
Chain of M3 acetylcholine receptor (P20309 whole entry): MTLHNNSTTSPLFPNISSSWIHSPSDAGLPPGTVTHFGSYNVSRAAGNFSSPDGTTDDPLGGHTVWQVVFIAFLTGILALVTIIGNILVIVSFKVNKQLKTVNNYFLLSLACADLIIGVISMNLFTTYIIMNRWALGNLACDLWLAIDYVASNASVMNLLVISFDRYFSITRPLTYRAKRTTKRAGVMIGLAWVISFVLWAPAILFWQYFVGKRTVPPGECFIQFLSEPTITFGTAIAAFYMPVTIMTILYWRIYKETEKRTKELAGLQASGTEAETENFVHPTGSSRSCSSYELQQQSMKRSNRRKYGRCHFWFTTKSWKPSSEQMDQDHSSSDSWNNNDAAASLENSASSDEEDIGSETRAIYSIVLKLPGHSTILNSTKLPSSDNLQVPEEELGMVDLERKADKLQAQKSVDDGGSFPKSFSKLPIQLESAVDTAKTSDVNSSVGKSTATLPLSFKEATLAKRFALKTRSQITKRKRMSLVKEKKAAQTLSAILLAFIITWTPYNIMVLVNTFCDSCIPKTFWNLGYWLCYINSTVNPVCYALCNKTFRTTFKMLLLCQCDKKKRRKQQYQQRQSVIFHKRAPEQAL

[18] = molecular target: T2, mouse A3AR; conditions: read-out: mouse Ki, A3AR, ref Carlin et al., 2017; cited from earlier work
[19] = molecular target: human 5HT2B receptor (Homo sapiens, UniProt P41595); test: PDSP off-target radioligand binding, 5HT2B receptor
Chain of human 5HT2B receptor (P41595 whole entry): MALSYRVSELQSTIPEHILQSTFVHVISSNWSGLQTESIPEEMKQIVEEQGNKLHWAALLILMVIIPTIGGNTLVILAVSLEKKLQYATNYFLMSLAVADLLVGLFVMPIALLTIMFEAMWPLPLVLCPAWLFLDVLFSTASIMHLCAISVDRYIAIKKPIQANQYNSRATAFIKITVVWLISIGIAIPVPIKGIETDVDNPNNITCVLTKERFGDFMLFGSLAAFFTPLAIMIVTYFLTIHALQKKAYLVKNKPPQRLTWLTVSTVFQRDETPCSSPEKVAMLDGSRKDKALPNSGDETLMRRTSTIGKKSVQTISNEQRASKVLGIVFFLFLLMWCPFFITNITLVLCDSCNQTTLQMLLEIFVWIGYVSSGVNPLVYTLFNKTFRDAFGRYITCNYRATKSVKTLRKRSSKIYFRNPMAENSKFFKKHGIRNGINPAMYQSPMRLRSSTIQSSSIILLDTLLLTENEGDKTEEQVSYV

[20] = tested on: A2BAR; conditions: rat; ref Hide et al., 1992; cited from earlier work
[21] = preladenant 1 mg/kg, i.p., alone, data not shown
[22] = CGS-21680 0.01–1 mg/kg, i.p., C57BL/6J mice
[23] = read-out: mouse Ki, A2AAR, mouse, current results, ± SEM
[24] = read-out: mouse Ki, A1AR, mouse, current results, ± SEM
[25] = PSB-0777 ≤3 mg/kg, i.p., wild type mice
[26] = SCH442416 3 mg/kg, i.p., alone, data not shown

SMILES: COCCOc1ccc(N2CCN(CCn3ncc4c3nc(N)n3nc(-c5ccco5)nc43)CC2)cc1 [preladenant]
- Tb [1, 21]: increase in Tb
- locomotor activity [1, 21]: increased locomotor activity

SMILES: CCNC(=O)[C@H]1O[C@@H](n2cnc3c(N)nc(NCCc4ccc(CCC(=O)O)cc4)nc32)[C@H](O)[C@@H]1O [CGS-21680, 2-[p-(2-carboxyethyl)phenethylamino]-5′-N-ethylcarboxamidoadenosine]
- food intake [2]: reduced food intake
- metabolic rate (total energy expenditure) [2]: marked reduction in metabolic rate
- time of Tb nadir [2]: ~ 65 minutes
- time of energy expenditure nadir [2]: ~ 26 minutes
- blood pressure [3]: caused hypotension
- off-target activities detected [4]: none
- brain penetrant ([5]; ref Nikodijevic et al., 1990): no ^d
- Tb response (hypothermia) ([1]; CGS-21680 0.01 mg/kg i.c.v., C57BL/6J mice): No hypothermia
- Tb response (hypothermia) ([1]; CGS-21680 0.5 mg/kg, i.p., Adora1−/−;Adora3−/− mice): intact
- Tb response (hypothermia) ([1]; CGS-21680 0.5 mg/kg, i.p., Adora2a−/− mice): did not cause hypothermia
- Tb response (hypothermia) ([1]; CGS-21680 0.5 mg/kg, i.p., KitW−sh/W−sh mice (lack mast cells)): showed a hypothermic response
- Tb response (hypothermia) [1, 22]: dose-dependent hypothermia
- physical activity [1, 22]: hypoactivity
- hypothermia ([6]; CGS-21680, high i.c.v. dose, ref Anderson et al., 1994): mild hypothermia
- hypothermia ([6]; CGS-21680, peripheral dosing, ref Eisner et al., 2017): mild hypothermia

SMILES: OC[C@H]1O[C@@H](n2cnc3c(NC4CCCC4)ncnc32)[C@H](O)[C@@H]1O [N^6-cyclopentyladenosine]
- advantage in binding affinity (A1AR vs A3AR) ([7]; A1AR vs A3AR): 2000 fold

SMILES: N.Nc1nc(SCCc2ccc(S(=O)(=O)O)cc2)nc2c1ncn2[C@@H]1O[C@H](CO)[C@@H](O)[C@H]1O [PSB-0777, 4-[2-[(6-Amino-9-b-D-ribofuranosyl-9H-purin-2-yl)thio]ethyl]benzenesulfonic acid ammonium salt]
- Ki [8, 23]: 193 ± 28 nM
- A1AR rat: mouse ratio [9]: >500
- Ki [9, 24]: 18.4 ± 1.1 nM
- Ki [10]: 3.3 µM
- Ki ([11]; ref El-Tayeb et al., 2011): > 10 µM
- Tb response (hypothermia) ([1]; PSB-0777 i.p., Adora2a−/− mice): abolished
- Tb response (hypothermia) [1, 25]: dose-dependent hypothermia
- physical activity [1, 25]: hypoactivity
- Ki [12]: 4.4 µM
- energy expenditure [13]: increased energy expenditure
- % inhibition at 10 μM, mouse A3AR ([14]; mouse, 10 μM, current results, ± SEM): 26 ± 1% ^e
- Ki ([15]; read-out: rat Ki, A1AR, ref El-Tayeb et al., 2011): ≥ 10000 nM

SMILES: Nc1ncnc2c1ncn2[C@@H]1O[C@H](CO)[C@@H](O)[C@H]1O [adenosine]
- Tb response (hypothermia) ([1]; adenosine 100 mg/kg, i.p., Adora1−/−;Adora3−/− mice): robust hypothermia

SMILES: CCN(CC)CC.Nc1nc2c(cnn2CCCc2ccc(OCc3ccc(S(=O)(=O)O)cc3)cc2)c2nc(-c3ccco3)nn12 [MRS7352, 4-((4-(3-(5-amino-2-(furan-2-yl)-7H-pyrazolo[4,3-e][1,2,4]triazolo[1,5-c]pyrimidin-7-yl)propyl)phenoxy)methyl)benzenesulfonate triethylammonium salt]
- physical activity ([1]; MRS7352 3 mg/kg, i.p.): without affecting physical activity
- block of PSB-0777-induced hypothermia ([1]; MRS7352 3 mg/kg): completely blocked

SMILES: CNC(=O)c1cnn(-c2nc(N)c3ncn([C@@H]4O[C@H](CO)[C@@H](O)[C@H]4O)c3n2)c1 [regadenoson, 1-[6-amino-9-[(2R,3R,4S,5R)-3,4-dihydroxy-5-(hydroxymethyl)oxolan-2-yl]purin-2-yl]-N-methylpyrazole-4-carboxamide]
- Ki [8]: 77.2 ± 6.3 nM
- Ki [9]: 7.75 ± 0.05 nM
- binding to A1AR more tightly than to A2AAR ([9]; mouse binding, Table 1): 10 fold
- binding to mouse A1AR better than human A1AR ([9]; mouse vs human A1AR (human value Gao et al., 2001)): > 1000 fold
- Ki ([11]; ref Gao et al., 2001): > 100 µM
- inhibition at 10 µM ([14]; read-out: % inhibition at 10 μM, mouse A3AR): 7 ± 2%

SMILES: COc1ccc(CCCn2ncc3c2nc(N)n2nc(-c4ccco4)nc32)cc1 [SCH442416, 2-(2-furyl)-7-[3-(4-methoxyphenyl)propyl]-7H-pyrazolo[4,3-e][1,2,4]triazolo[1,5-c]pyrimidin-5-amine]
- Ki [16]: 6.1 µM
- Ki [17]: 6.8 µM
- Ki [18]: > 10 µM
- brain penetrant ([5]; ref Todde et al., 2000): yes ^j
- Ki ([11]; ref Todde et al., 2000): > 10 µM
- Ki ([7]; read-out: mouse Ki, A1AR, mouse): 765 nM
- block of PSB-0777-induced hypothermia ([1]; SCH442416 0.6 mg/kg): largely blocked
- physical activity ([1]; SCH442416 0.6 mg/kg, i.p., by itself, p=0.078): trended to increase activity
- Tb ([1]; SCH442416 0.6 mg/kg, i.p., by itself, p=0.10): trended to increase
- Tb [1, 26]: increase in Tb
- locomotor activity [1, 26]: increased locomotor activity
- Ki [19]: 910 nM
- Ki ([15]; read-out: rat Ki, A1AR, ref Todde et al., 2000): 1820 nM

SMILES: CCNC(=O)[C@H]1O[C@@H](n2cnc3c(N)nc(NCCc4ccc(CCC(=O)NCCN)cc4)nc32)[C@H](O)[C@@H]1O [APEC, 2-[[2-[4-[2-(2-aminoethyl)-aminocarbonyl]ethyl]phenyl]ethylamino]-5′-N-ethyl-carboxamidoadenosine]
- Ki [8, 23]: 3.57 ± 0.22 nM
- binding to mouse A1AR better than rat A1AR ([9]; mouse vs rat A1AR): ~ 100 fold
- A1AR rat: mouse ratio [9]: 95
- Ki [9, 24]: 4.17 ± 0.15 nM
- Tb response ([1]; APEC 1.7 μg/kg i.p.): blunting the handling hyperthermia
- Tb response (hypothermia) ([1]; APEC 50 μg/kg i.p.): robust hypothermia
- physical activity ([1]; APEC 50 μg/kg i.p.): hypoactivity
- Tb response (hypothermia) ([1]; APEC i.p., Adora1−/−;Adora3−/− mice): attenuated
- Tb response (hypothermia) ([1]; APEC i.p., Adora2a−/− mice): attenuated
- Tb response (hypothermia) ([1]; APEC i.p., Adora2b−/− mice): fully intact
- A2BAR (r) activity [20]: inactive (r) ^h
- Ki ([14]; read-out: mouse Ki, A3AR, mouse, current results, ± SEM): 55.1 ± 4.3 nM
- Ki ([15]; read-out: rat Ki, A1AR, ref Kim et al., 1994): 400 nM
